Measured values reported in ChEMBL document CHEMBL5579900, “Enhanced Recognition Memory through Dual Modulation of Brain Carbonic Anhydrases and Cholinesterases” (J Med Chem, 2024).
The source made the active and inactive calls. No cut-off for these calls is given here.

Columns and labels:
[1] = biological target: Carbonic anhydrase 1 (Homo sapiens) (UniProt P00915)
Description: Binding affinity to human carbonic anhydrase 1 assessed as activation constant by phenol red dye based stopped-flow method

Mus musculus [2] = assay: Improvement of social recognition memory in juvenile familiar male C57Bl6 mouse assessed as reduction in exploration time at 0.1 nmol/uL, ICV administered post acquisition phase and measured after 48 hrs at retention test phase; format: functional, organism-based
Mus musculus [3] = assay: Improvement of social recognition memory in juvenile familiar male C57Bl6 mouse assessed as reduction in exploration time by measuring discrimination index at 0.1 nmol/uL, ICV administered post acquisition phase and measured after 48 hrs at retention test phase; format: functional, organism-based
Mus musculus [4] = assay: Improvement of social recognition memory in juvenile unfamiliar male C57Bl6 mouse assessed as reduction in exploration time at 0.1 nmol/uL, ICV administered post acquisition phase and measured after 48 hrs at retention test phase; format: functional, organism-based
Acetylcholinesterase = Acetylcholinesterase (Electrophorus electricus, UniProt O42275)
Acetylcholinesterase, sequence (O42275 whole entry): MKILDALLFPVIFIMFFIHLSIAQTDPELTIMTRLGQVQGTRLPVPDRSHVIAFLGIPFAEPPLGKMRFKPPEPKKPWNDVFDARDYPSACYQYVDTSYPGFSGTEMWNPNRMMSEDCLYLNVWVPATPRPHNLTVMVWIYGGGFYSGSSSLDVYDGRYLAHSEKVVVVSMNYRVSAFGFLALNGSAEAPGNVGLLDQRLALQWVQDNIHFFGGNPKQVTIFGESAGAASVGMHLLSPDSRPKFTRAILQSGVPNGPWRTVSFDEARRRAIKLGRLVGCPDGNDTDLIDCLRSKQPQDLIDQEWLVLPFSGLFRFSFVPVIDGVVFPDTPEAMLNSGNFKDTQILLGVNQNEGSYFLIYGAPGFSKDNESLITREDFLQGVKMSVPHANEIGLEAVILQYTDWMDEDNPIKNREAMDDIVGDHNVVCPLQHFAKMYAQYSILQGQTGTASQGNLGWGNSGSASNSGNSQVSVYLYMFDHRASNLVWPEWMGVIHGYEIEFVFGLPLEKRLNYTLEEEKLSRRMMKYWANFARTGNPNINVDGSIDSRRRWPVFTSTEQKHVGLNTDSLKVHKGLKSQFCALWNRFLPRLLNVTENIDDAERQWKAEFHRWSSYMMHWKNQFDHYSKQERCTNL
Description: Inhibition of electric eel AChE by microplate reader based analysis

Mus musculus [5] = assay: Improvement of social recognition memory in juvenile unfamiliar male C57Bl6 mouse assessed as reduction in exploration time at 0.5 to 25 nmol/uL, ICV administered post acquisition phase and measured after 48 hrs at retention test phase; format: functional, organism-based; conditions: dose 0.5-25 nmol/uL
Mus musculus [6] = assay: Improvement of social recognition memory in juvenile familiar male C57Bl6 mouse assessed as reduction in exploration time at 0.5 to 25 nmol/uL, ICV administered post acquisition phase and measured after 48 hrs at retention test phase; format: functional, organism-based; conditions: dose 0.5-25 nmol/uL
Cholinesterase = Cholinesterase (Equus caballus, UniProt P81908)
Cholinesterase, sequence (P81908 whole entry): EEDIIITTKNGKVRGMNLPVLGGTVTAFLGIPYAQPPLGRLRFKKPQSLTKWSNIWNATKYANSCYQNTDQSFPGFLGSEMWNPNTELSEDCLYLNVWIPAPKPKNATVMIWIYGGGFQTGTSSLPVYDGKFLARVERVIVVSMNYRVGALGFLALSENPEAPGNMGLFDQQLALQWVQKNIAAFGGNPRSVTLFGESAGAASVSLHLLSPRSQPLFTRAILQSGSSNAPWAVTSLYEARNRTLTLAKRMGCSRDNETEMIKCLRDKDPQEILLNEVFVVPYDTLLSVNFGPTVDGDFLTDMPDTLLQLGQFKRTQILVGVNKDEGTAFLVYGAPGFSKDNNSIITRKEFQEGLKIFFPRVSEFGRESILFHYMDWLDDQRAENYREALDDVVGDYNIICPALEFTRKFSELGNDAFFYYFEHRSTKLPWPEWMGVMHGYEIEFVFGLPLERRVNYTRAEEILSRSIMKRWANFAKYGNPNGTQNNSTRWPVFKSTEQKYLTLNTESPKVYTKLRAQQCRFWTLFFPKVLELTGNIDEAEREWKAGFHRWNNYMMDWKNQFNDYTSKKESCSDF
Description: Inhibition of equine serum BuChE by microplate reader based analysis

[7] = biological target: Carbonic anhydrase 2 (Homo sapiens) (UniProt P00918)
Description: Binding affinity to human carbonic anhydrase 2 assessed as activation constant by phenol red dye based stopped-flow method

Mus musculus [8] = assay: Improvement of social recognition memory in juvenile unfamiliar male C57Bl6 mouse assessed as reduction in exploration time by measuring discrimination index at 0.1 nmol/uL, ICV administered post acquisition phase and measured after 48 hrs at retention test phase; format: functional, organism-based
[9] = biological target: Carbonic anhydrase 7 (Homo sapiens) (UniProt P43166)
Carbonic anhydrase 7 (Homo sapiens), sequence (P43166 whole entry): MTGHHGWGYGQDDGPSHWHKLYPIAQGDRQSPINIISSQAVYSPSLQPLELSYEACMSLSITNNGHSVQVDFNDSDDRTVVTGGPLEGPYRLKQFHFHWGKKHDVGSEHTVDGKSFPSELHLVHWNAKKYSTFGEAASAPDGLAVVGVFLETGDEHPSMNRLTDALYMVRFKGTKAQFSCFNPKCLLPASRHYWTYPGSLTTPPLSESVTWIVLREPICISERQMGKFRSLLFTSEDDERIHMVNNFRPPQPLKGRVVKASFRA
Description: Binding affinity to human carbonic anhydrase 7 assessed as activation constant by phenol red dye based stopped-flow method

[10] = biological target: Carbonic anhydrase 4 (Homo sapiens) (UniProt P22748)
Carbonic anhydrase 4 (Homo sapiens), sequence (P22748 whole entry): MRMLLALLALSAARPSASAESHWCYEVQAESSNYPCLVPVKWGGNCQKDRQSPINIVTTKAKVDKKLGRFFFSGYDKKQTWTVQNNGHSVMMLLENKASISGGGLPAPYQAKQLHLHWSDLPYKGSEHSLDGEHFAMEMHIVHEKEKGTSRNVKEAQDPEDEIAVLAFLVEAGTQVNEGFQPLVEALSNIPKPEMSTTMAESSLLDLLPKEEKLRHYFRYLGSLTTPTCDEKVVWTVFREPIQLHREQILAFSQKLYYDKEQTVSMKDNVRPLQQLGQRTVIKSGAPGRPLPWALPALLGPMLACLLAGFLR
Description: Binding affinity to human carbonic anhydrase 4 assessed as activation constant by phenol red dye based stopped-flow method

[11] = biological target: Carbonic anhydrase 5B, mitochondrial (Homo sapiens) (UniProt Q9Y2D0)
Carbonic anhydrase 5B, mitochondrial (Homo sapiens), sequence (Q9Y2D0 whole entry): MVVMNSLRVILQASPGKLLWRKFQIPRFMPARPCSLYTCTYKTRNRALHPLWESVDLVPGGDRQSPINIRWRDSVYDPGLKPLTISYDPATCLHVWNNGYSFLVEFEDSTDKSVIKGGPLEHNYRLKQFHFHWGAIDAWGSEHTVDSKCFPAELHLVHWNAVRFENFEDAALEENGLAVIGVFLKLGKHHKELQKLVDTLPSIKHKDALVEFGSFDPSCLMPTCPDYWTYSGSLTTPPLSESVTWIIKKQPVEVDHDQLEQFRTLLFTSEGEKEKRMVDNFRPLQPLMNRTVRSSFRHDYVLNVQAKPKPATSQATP
Description: Binding affinity to human carbonic anhydrase 5B assessed as activation constant by phenol red dye based stopped-flow method

Mus musculus [12] = assay: Improvement of social recognition memory in juvenile familiar male C57Bl6 mouse assessed as reduction in exploration time at 0.5 nmol/uL, ICV administered post acquisition phase and measured after 48 hrs at retention test phase; format: functional, organism-based
Mus musculus [13] = assay: Improvement of social recognition memory in juvenile unfamiliar male C57Bl6 mouse assessed as reduction in exploration time by measuring discrimination index at 0.5 nmol/uL, ICV administered post acquisition phase and measured after 48 hrs at retention test phase; format: functional, organism-based
Mus musculus [14] = assay: Improvement of social recognition memory in juvenile unfamiliar male C57Bl6 mouse assessed as reduction in exploration time at 0.5 nmol/uL, ICV administered post acquisition phase and measured after 48 hrs at retention test phase; format: functional, organism-based
Mus musculus [15] = assay: Improvement of social recognition memory in juvenile familiar male C57Bl6 mouse assessed as reduction in exploration time by measuring discrimination index at 0.5 nmol/uL, ICV administered post acquisition phase and measured after 48 hrs at retention test phase; format: functional, organism-based
Mus musculus [16] = assay: Improvement of social recognition memory in juvenile familiar male C57Bl6 mouse assessed as discrimination index at 50 nmol/uL, ICV administered post acquisition phase and measured after 48 hrs at retention test phase (reference value: -0.07+/-0.0124); format: functional
Mus musculus [17] = assay: Improvement of social recognition memory in juvenile familiar male C57Bl6 mouse assessed as reduction in exploration time at 5 nmol/uL, ICV administered post acquisition phase and measured after 48 hrs at retention test phase in presence of tacrine; format: functional, organism-based
Mus musculus [18] = assay: Improvement of social recognition memory in juvenile familiar male C57Bl6 mouse assessed as reduction in exploration time at 25 nmol/uL, ICV administered post acquisition phase and measured after 48 hrs at retention test phase in presence of tacrine; format: functional, organism-based
Mus musculus [19] = assay: Improvement of social recognition memory in juvenile unfamiliar male C57Bl6 mouse assessed as reduction in exploration time at 25 nmol/uL, ICV administered post acquisition phase and measured after 48 hrs at retention test phase in presence of tacrine; format: functional, organism-based
Mus musculus [20] = assay: Improvement of social recognition memory in juvenile familiar male C57Bl6 mouse assessed as discrimination index at 25 nmol/uL, ICV administered post acquisition phase and measured after 48 hrs at retention test phase in presence of tacrine (reference value: -0.07+/-0.0124); format: functional
Mus musculus [21] = assay: Improvement of social recognition memory in juvenile unfamiliar male C57Bl6 mouse assessed as reduction in exploration time at 5 nmol/uL, ICV administered post acquisition phase and measured after 48 hrs at retention test phase in presence of tacrine; format: functional, organism-based

Carbonic anhydrase 1 (Homo sapiens), sequence (P00915 2-261 limits assumed): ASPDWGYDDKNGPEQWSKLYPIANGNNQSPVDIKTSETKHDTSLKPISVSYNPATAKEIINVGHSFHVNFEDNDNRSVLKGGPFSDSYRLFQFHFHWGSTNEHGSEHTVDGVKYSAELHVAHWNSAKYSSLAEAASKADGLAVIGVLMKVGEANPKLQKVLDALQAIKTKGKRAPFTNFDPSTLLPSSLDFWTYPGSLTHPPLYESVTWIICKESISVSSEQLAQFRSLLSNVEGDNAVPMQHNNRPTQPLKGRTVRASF

COC(=O)[C@H](Cc1c[nH]cn1)NCCCCCCNc1c2c(nc3ccccc13)CCCC2
KA ([1]; filed as activator): 266 nM
Activity (Mus musculus [2]): inactive
Activity (Mus musculus [3]): inactive
Activity (Mus musculus [4]): inactive
IC50 (Acetylcholinesterase): 72.1 nM
Activity (Mus musculus [5]): Active
Activity (Mus musculus [6]): Active
IC50 (Cholinesterase): 4.2 nM
KA ([7]; filed as activator): 76.9 nM
Activity (Mus musculus [8]): inactive
KA ([9]; filed as activator): 98 nM
KA ([10]; filed as activator): 918 nM
KA ([11]; filed as activator): 893 nM

N[C@@H](Cc1c[nH]cn1)C(=O)NCCCCCNc1c2c(nc3ccccc13)CCCC2
KA ([1]; filed as activator): 565 nM
Activity (Mus musculus [2]): inactive
Activity (Mus musculus [3]): inactive
Activity (Mus musculus [4]): inactive
IC50 (Acetylcholinesterase): 29.8 nM
Activity (Mus musculus [5]): Active
Activity (Mus musculus [6]): Active
IC50 (Cholinesterase): 6.8 nM
KA ([7]; filed as activator): 65.1 nM
Activity (Mus musculus [8]): inactive
KA ([9]; filed as activator): 96.4 nM
KA ([10]; filed as activator): 757 nM
KA ([11]; filed as activator): 1010 nM

N[C@@H](Cc1ccccc1)C(=O)NCCCCCNc1c2c(nc3ccccc13)CCCC2
KA ([1]; filed as activator): 782 nM
Activity (Mus musculus [2]): inactive
Activity (Mus musculus [3]): inactive
Activity (Mus musculus [4]): inactive
IC50 (Acetylcholinesterase): 7.4 nM
Activity (Mus musculus [5]): Active
Activity (Mus musculus [6]): Active
IC50 (Cholinesterase): 1.9 nM
KA ([7]; filed as activator): 93.4 nM
Activity (Mus musculus [8]): inactive
KA ([9]; filed as activator): 192 nM
KA ([10]; filed as activator): 2610 nM
KA ([11]; filed as activator): 1320 nM

N[C@@H](Cc1c[nH]c2ccccc12)C(=O)NCCCCNc1c2c(nc3ccccc13)CCCC2
KA ([1]; filed as activator): 542 nM
IC50 (Acetylcholinesterase): 145 nM
IC50 (Cholinesterase): 2.4 nM
KA ([7]; filed as activator): 413 nM
KA ([9]; filed as activator): 289 nM
KA ([10]; filed as activator): 3120 nM
KA ([11]; filed as activator): 703 nM

c1ccc2c(NCCCCCNCCc3c[nH]cn3)c3c(nc2c1)CCCC3
KA ([1]; filed as activator): 439 nM
IC50 (Acetylcholinesterase): 60.2 nM
IC50 (Cholinesterase): 2.4 nM
KA ([7]; filed as activator): 290 nM
KA ([9]; filed as activator): 439 nM
KA ([10]; filed as activator): 1280 nM
KA ([11]; filed as activator): 541 nM

N[C@@H](CCCCNC(=O)OCc1ccccc1)C(=O)NCCCNc1c2c(nc3ccccc13)CCCC2
Activity (Mus musculus [12]): inactive
Activity (Mus musculus [13]): inactive
KA ([1]; filed as activator): 2080 nM
Activity (Mus musculus [14]): inactive
IC50 (Acetylcholinesterase): 110 nM
IC50 (Cholinesterase): 0.3 nM
KA ([7]; filed as activator): 1200 nM
KA ([9]; filed as activator): 3080 nM
KA ([10]; filed as activator): 8520 nM
KA ([11]; filed as activator): 4950 nM
Activity (Mus musculus [15]): inactive

CC(C)(C)OC(=O)N[C@@H](Cc1cn(C(=O)OC(C)(C)C)cn1)C(=O)NCCCNc1c2c(nc3ccccc13)CCCC2
KA [1]: > 50000 nM
IC50 (Acetylcholinesterase): 157 nM
IC50 (Cholinesterase): 3.6 nM
KA ([7]; filed as activator): 15900 nM
KA [9]: > 50000 nM
KA [10]: > 50000 nM
KA [11]: > 50000 nM

N[C@H](Cc1ccccc1)C(=O)O [D-PHENYLALANINE]
Activity_index (Mus musculus [16]): 0.373
Activity (Mus musculus [17]): inactive
Activity (Mus musculus [18]): Active
Activity (Mus musculus [19]): Active
Activity_index (Mus musculus [20]): 0.205
Activity (Mus musculus [21]): inactive

CC(C)(C)OC(=O)N[C@@H](Cc1ccccc1)C(=O)NCCCCNc1c2c(nc3ccccc13)CCCC2
KA [1]: > 50000 nM
IC50 (Acetylcholinesterase): 158 nM
IC50 (Cholinesterase): 0.38 nM
KA [7]: > 50000 nM
KA [9]: > 50000 nM
KA [10]: > 50000 nM
KA [11]: > 50000 nM
